22 compounds from patent US20250100968A1, “BICYCLIC-HETEROCYCLE DERIVATIVES AND RELATED USES” (CENTESSA PHARMACEUTICALS (UK) LIMITED, priority 2022, published 2025) can be followed below.

Each structure is given as a SMILES string.
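Note: agonist activity in CHO cells stably expressing hOX2R, intracellular Ca2+ via Calcium 5 dye fluorescence area over 2 min, buffer-only as 0% and 10 nM orexin A as 100%.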

The target in this assay is T1, human orexin type 2 receptor (hOX2R) (Homo sapiens, UniProt O43614).
T1 sequence (O43614 1-444): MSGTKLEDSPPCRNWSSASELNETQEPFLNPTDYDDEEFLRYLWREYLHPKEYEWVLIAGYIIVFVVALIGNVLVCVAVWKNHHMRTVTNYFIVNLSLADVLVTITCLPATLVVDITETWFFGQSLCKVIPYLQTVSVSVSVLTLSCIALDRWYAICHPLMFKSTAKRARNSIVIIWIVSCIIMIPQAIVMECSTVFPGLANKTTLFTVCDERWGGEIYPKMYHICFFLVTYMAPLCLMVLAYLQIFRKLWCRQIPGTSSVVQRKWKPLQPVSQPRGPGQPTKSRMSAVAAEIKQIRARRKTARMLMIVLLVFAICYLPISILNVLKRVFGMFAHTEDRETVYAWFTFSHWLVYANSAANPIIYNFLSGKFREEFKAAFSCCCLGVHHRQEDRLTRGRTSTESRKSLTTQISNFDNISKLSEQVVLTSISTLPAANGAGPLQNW
As to the kind of experiment: cell-based.
Method: Measurement of orexin type 2 receptor agonist activity. […] After removal of the medium, 50 μl of assay buffer 1 (0.1% bovine serum albumin (Sigma Aldrich), 20 mM HEPES (Molecular Dimensions), 250 mM probenecid (Sigma Aldrich), 1× Calcium 5 dye (Molecular Devices) in Hank's balanced salt solution (Invitrogen)) was added, and the cells were incubated for 60 min under the conditions of 37° C., 5% CO2. A test compound was dissolved in dimethyl sulfoxide (Sigma Aldrich) to 10 mM, and then diluted with assay buffer 2 (20 mM HEPES, Hank's balanced salt solution, 0.1% bovine serum albumin). For the reaction, a test compound solution (10 μl) was added using Fluorescent Imaging Plate Reader TETRA (FLIPR TETRA: manufactured by Molecular Devices), a fluorescence value (excitation wavelength 488 nm, measurement wavelength 570 nm) of each well was measured every one second for 2 min, and the agonist activity was determined using the area of the fluorescence value as an indicator of intracellular Ca^2+ concentration. The agonist activity of the test compound was calculated assuming that the fluorescence value of the well added with only the dilution buffer was 0% and the fluorescence value of the well added with 10 nM human orexin A (Tocris) buffer was 100%.
A word on the EC50: it is the concentration giving half of the maximal effect. Compound `C[C@H](C#N)C(=O)N1CC2(CC2)[C@H](NS(=O)(=O)CF)[C@@H]1Cc1cccc(-c2cc(F)cc(F)c2)c1F` [compound 62, N-((6S,7S)-5-((R)-2-cyanopropanoyl)-6-((2,3′,5′-trifluoro-[1,1′-biphenyl]-3-yl)methyl)-5-azaspiro[2.4]heptan-7-yl)-1-fluoromethanesulfonamide] displayed a 50% effective concentration (EC50) of 1 to 10 nM.

Compound `N#C[C@]1(C(=O)N2CC3(CC3)[C@H](NS(=O)(=O)CF)[C@@H]2Cc2cc(F)cc(-c3ccccc3)c2F)CCO1` [compound 85, N-((6S,7S)-5-((S)-2-cyanooxetane-2-carbonyl)-6-((2,5-difluoro-[1,1′-biphenyl]-3-yl)methyl)-5-azaspiro[2.4]heptan-7-yl)-1-fluoromethanesulfonamide] yielded a concentration giving a half-maximal response (EC50) of 1 to 10 nM.

For the compound `CC(C)NC(=O)N1CC2(CC2)[C@H](NS(=O)(=O)CF)[C@@H]1Cc1cccc(-c2ccccc2)c1F` [compound 82, (6S,7S)-6-((2-fluoro-[1,1′-biphenyl]-3-yl)methyl)-7-((fluoromethyl)sulfonamido)-N-isopropyl-5-azaspiro[2.4] heptane-5-carboxamide], the concentration giving a half-maximal response (EC50) was 1 to 10 nM.

In the case of `COC1CN(C(=O)N2CC3(CC3)[C@H](NS(=O)(=O)CF)[C@@H]2Cc2cc(F)cc(-c3ccccc3)c2F)C1` [compound 59, N-((6S,7S)-6-((2,5-difluoro-[1,1′-biphenyl]-3-yl)methyl)-5-(3-methoxyazetidine-1-carbonyl)-5-azaspiro[2.4]heptan-7-yl)-1-fluoromethanesulfonamide], the concentration giving a half-maximal response (EC50) fell in the range of 1 to 10 nM.

The compound `N#C[C@]1(C(=O)N2CC3(CC3)[C@H](NS(=O)(=O)C(F)F)[C@@H]2Cc2cccc(-c3cccc(F)c3)c2F)CCO1` [compound 53, N-((6S,7S)-5-((S)-2-cyanooxetane-2-carbonyl)-6-((2,3′-difluoro-[1,1′-biphenyl]-3-yl)methyl)-5-azaspiro[2.4]heptan-7-yl)-1,1-difluoromethanesulfonamide] gave an EC50 of 1 to 10 nM.

For `C[C@@](O)(C(=O)N1CC2(CC2)[C@H](NS(=O)(=O)CF)[C@@H]1Cc1cccc(-c2ccccc2)c1F)C1CC1` [compound 2, N-((6S,7S)-5-((S)-2-cyclopropyl-2-hydroxypropanoyl)-6-((2-fluoro-[1,1′-biphenyl]-3-yl)methyl)-5-azaspiro[2.4]heptan-7-yl)-1-fluoromethanesulfonamide], the EC50 lay in the range of 10 to 100 nM.

`C[C@@H](F)S(=O)(=O)N[C@@H]1[C@H](Cc2cc(F)cc(-c3cc(F)cc(F)c3)c2F)N(C(=O)[C@H]2CCO2)CC12CC2` [compound 57, (S)-1-fluoro-N-((6S,7S)-5-((R)-oxetane-2-carbonyl)-6-((2,3′,5,5′-tetrafluoro-[1,1′-biphenyl]-3-yl)methyl)-5-azaspiro[2.4]heptan-7-yl)ethane-1-sulfonamide] gave an EC50 of 1 to 10 nM.

In the case of `C[C@@](O)(C(=O)N1CC2(CC2)[C@H](NS(=O)(=O)C(F)F)[C@@H]1Cc1cccc(-c2ccccc2)c1F)C1CC1` [compound 75, N-((6S,7S)-5-((S)-2-cyclopropyl-2-hydroxypropanoyl)-6-((2-fluoro-[1,1′-biphenyl]-3-yl)methyl)-5-azaspiro[2.4]heptan-7-yl)-1,1-difluoromethanesulfonamide], the concentration for a half-maximal effect (EC50) was 1 to 10 nM.

In the case of `O=C([C@@H](O)C1CC1)N1CC2(CC2)[C@H](NS(=O)(=O)CF)[C@@H]1Cc1cccc(-c2cc(F)cc(F)c2)c1F` [compound 3, N-((6S,7S)-5-((S)-2-cyclopropyl-2-hydroxyacetyl)-6-((2,3′,5′-trifluoro-[1,1′-biphenyl]-3-yl)methyl)-5-azaspiro[2.4]heptan-7-yl)-1-fluoromethanesulfonamide], the EC50 was 10 to 100 nM.

Regarding `N#CC1(C(=O)N2CC3(CC3)[C@H](NS(=O)(=O)CF)[C@@H]2Cc2cccc(-c3ccccc3)c2F)COC1` [compound 34, N-((6S,7S)-5-(3-cyanooxetane-3-carbonyl)-6-((2-fluoro-[1,1′-biphenyl]-3-yl)methyl)-5-azaspiro[2.4]heptan-7-yl)-1-fluoromethanesulfonamide], the half-maximal effective concentration (EC50) was in the range of 0.0631 to 1 nM.

With `C[C@H](C#N)C(=O)N1CC2(CC2)[C@H](NS(=O)(=O)C(F)F)[C@@H]1Cc1cccc(-c2ccccc2)c1F` [compound 40, N-((6S,7S)-5-((R)-2-cyanopropanoyl)-6-((2-fluoro-[1,1′-biphenyl]-3-yl)methyl)-5-azaspiro[2.4]heptan-7-yl)-1,1-difluoromethanesulfonamide], the EC50 is 1 to 10 nM.

Take `O=C(NCC(F)F)N1CC2(CC2)[C@H](NS(=O)(=O)CF)[C@@H]1Cc1cccc(-c2cc(F)cc(F)c2)c1F` [compound 15, (6S,7S)-N-(2,2-difluoroethyl)-7-((fluoromethyl)sulfonamido)-6-((2,3′,5′-trifluoro-[1,1′-biphenyl]-3-yl)methyl)-5-azaspiro[2.4]heptane-5-carboxamide]: the 50% effective concentration (EC50) lay within 1 to 10 nM.

Compound `COC1CN(C(=O)N2CC3(CC3)[C@H](NS(=O)(=O)C(F)F)[C@@H]2Cc2cccc(-c3cc(F)cc(F)c3)c2F)C1` [compound 52, 1,1-difluoro-N-((6S,7S)-5-(3-methoxyazetidine-1-carbonyl)-6-((2,3′,5′-trifluoro-[1,1′-biphenyl]-3-yl)methyl)-5-azaspiro[2.4]heptan-7-yl)methanesulfonamide] gave a 50% effective concentration (EC50) of 1 to 10 nM.

For `N#CC1(C(=O)N2CC3(CC3)[C@H](NS(=O)(=O)CF)[C@@H]2Cc2cccc(-c3ccccc3)c2F)CC1` [compound 5, N-((6S,7S)-5-(1-cyanocyclopropane-1-carbonyl)-6-((2-fluoro-[1,1′-biphenyl]-3-yl)methyl)-5-azaspiro[2.4]heptan-7-yl)-1-fluoromethanesulfonamide], the EC50 lay in the range of 0.0631 to 1 nM.

`CO[C@H](C)C(=O)N1CC2(CC2)[C@H](NS(=O)(=O)CF)[C@@H]1Cc1cccc(-c2cc(F)cc(F)c2)c1F` [compound 68, 1-fluoro-N-((6S,7S)-5-((R)-2-methoxypropanoyl)-6-((2,3′,5′-trifluoro-[1,1′-biphenyl]-3-yl)methyl)-5-azaspiro[2.4]heptan-7-yl)methanesulfonamide] had an EC50 of 1 to 10 nM.

On to `N#C[C@]1(C(=O)N2CC3(CC3)[C@H](NS(=O)(=O)CF)[C@@H]2Cc2cccc(-c3ccccc3)c2F)C[C@H](F)C1` [compound 54, N-((6S,7S)-5-((1r,3S)-1-cyano-3-fluorocyclobutane-1-carbonyl)-6-((2-fluoro-[1,1′-biphenyl]-3-yl)methyl)-5-azaspiro[2.4]heptan-7-yl)-1-fluoromethanesulfonamide], for which the 50% effective concentration (EC50) is 0.0631 to 1 nM.

For the compound `C[C@H](F)S(=O)(=O)N[C@@H]1[C@H](Cc2cc(F)cc(-c3cc(F)cc(F)c3)c2F)N(C(=O)[C@H]2CCO2)CC12CC2` [compound 58, (R)-1-fluoro-N-((6S,7S)-5-((R)-oxetane-2-carbonyl)-6-((2,3′,5,5′-tetrafluoro-[1,1′-biphenyl]-3-yl)methyl)-5-azaspiro[2.4]heptan-7-yl)ethane-1-sulfonamide], the EC50 was in the range of 1 to 10 nM.

As for `O=C([C@H]1CCO1)N1CC2(CC2)[C@H](NS(=O)(=O)C2(F)CC2)[C@@H]1Cc1cccc(-c2cc(F)cc(F)c2)c1F` [compound 36, 1-fluoro-N-((6S,7S)-5-((R)-oxetane-2-carbonyl)-6-((2,3′,5′-trifluoro-[1,1′-biphenyl]-3-yl)methyl)-5-azaspiro[2.4]heptan-7-yl)cyclopropane-1-sulfonamide], the EC50 was in the range of 0.0631 to 1 nM.

As for `N#C[C@]1(C(=O)N2CC3(CC3)[C@H](NS(=O)(=O)CF)[C@@H]2Cc2cccc(-c3cc(F)cc(F)c3)c2F)CCO1` [compound 47, N-((6S,7S)-5-((S)-2-cyanooxetane-2-carbonyl)-6-((2,3′,5′-trifluoro-[1,1′-biphenyl]-3-yl)methyl)-5-azaspiro[2.4]heptan-7-yl)-1-fluoromethanesulfonamide], the concentration for a half-maximal effect (EC50) lay within 1 to 10 nM.

As to `C[C@H](C#N)C(=O)N1CC2(CC2)[C@H](NS(=O)(=O)C(F)F)[C@@H]1Cc1cccc(-c2cc(F)cc(F)c2)c1F` [compound 49, N-((6S,7S)-5-((R)-2-cyanopropanoyl)-6-((2,3′,5′-trifluoro-[1,1′-biphenyl]-3-yl)methyl)-5-azaspiro[2.4]heptan-7-yl)-1,1-difluoromethanesulfonamide], the EC50 lay in the range of 1 to 10 nM.

`N#C[C@]1(C(=O)N2CC3(CC3)[C@H](NS(=O)(=O)CF)[C@@H]2Cc2cccc(-c3cccc(F)c3)c2F)CCO1` [compound 46, N-((6S,7S)-5-((S)-2-cyanooxetane-2-carbonyl)-6-((2,3′-difluoro-[1,1′-biphenyl]-3-yl)methyl)-5-azaspiro[2.4]heptan-7-yl)-1-fluoromethanesulfonamide] yielded a concentration for a half-maximal effect (EC50) of 1 to 10 nM.

The compound `CC[C@](C)(O)C(=O)N1CC2(CC2)[C@H](NS(=O)(=O)CF)[C@@H]1Cc1cccc(-c2cccc(F)c2)c1F` [compound 33, N-((6S,7S)-6-((2,3′-difluoro-[1,1′-biphenyl]-3-yl)methyl)-5-((S)-2-hydroxy-2-methylbutanoyl)-5-azaspiro[2.4]heptan-7-yl)-1-fluoromethanesulfonamide] showed an EC50 of 0.0631 to 1 nM.
